Test results reported in patent US5688938A, “Calcium receptor-active molecules” (priority 1995, dated 1997).
Entries after “also recorded” stand apart in the source; their conditions may differ.

Legend:
[1] = target: T1, parathyroid cell calcium receptor (Bos taurus, UniProt P35384); test: cell-based; type: cell-based
T1 sequence (P35384 21-1085 limits assumed): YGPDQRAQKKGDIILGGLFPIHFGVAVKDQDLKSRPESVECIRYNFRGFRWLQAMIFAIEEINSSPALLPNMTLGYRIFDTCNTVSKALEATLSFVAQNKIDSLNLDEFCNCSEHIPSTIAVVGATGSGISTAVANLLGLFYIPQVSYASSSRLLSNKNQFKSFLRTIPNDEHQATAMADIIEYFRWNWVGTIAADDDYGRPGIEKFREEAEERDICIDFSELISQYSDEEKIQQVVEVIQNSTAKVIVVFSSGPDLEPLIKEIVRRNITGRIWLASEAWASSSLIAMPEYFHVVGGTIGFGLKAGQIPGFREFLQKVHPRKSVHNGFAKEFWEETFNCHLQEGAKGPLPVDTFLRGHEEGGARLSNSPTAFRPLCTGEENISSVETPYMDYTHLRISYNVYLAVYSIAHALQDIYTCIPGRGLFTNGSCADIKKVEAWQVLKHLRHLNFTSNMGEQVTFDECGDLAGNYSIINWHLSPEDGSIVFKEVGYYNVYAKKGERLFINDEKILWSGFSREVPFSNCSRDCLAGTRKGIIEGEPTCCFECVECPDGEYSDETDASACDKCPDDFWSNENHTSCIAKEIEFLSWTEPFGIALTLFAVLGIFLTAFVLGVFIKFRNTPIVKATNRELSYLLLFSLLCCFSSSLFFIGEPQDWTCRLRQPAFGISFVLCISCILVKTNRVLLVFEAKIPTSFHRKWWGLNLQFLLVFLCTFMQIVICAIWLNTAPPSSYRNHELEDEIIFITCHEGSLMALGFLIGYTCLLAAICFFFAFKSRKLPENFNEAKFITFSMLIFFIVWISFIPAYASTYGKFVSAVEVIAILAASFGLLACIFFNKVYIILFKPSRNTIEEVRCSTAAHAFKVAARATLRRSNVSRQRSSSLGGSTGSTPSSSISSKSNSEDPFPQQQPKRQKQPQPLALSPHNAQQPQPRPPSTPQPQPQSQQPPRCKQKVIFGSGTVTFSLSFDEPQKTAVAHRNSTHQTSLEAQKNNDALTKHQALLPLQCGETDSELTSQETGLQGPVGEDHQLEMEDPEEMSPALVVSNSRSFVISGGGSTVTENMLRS
Experimental: For example,.bovine parathyroid cells loaded with fura-2 are initially suspended in buffer containing 0.5 mM CaCl2. A test substance is added to the cuvette in a small volume (5-15 μl) and changes in the fluorescence signal are measured. Cumulative increases in the concentration of the test substance are made in the cuvette until some predetermined concentration is achieved or no further changes in fluorescence are noted.
This section describes procedures used to obtain and treat parathyroid cells from calves and humans. […] Human parathyroid glands, were obtained from patients undergoing surgical removal of parathyroid tissue for primary or uremic hyperparathyroidism (uremic HPT), and were treated similarly to bovine tissue.
Glands were trimmed of excess fat and connective tissue and then minced with fine scissors into cubes approximately 2-3 mm on a side. Dissociated parathyroid cells were prepared by collagenase digestion and then purified by centrifugation in Percoll buffer. The resultant parathyroid cell preparation was essentially devoid of red blood cells, adipocytes, and capillary tissue as assessed by phase contrast microscopy and Sudan black B staining. Dissociated and purified parathyroid cells were present as small clusters containing 5 to 20 cells.
The cells were then transferred to plastic flasks (75 or 150 cm^2 ; Falcon) and incubated overnight at 37° C. in a humid atmosphere of 5% CO2. No serum is added to these overnight cultures, since its presence allows the cells to attach to the plastic, undergo proliferation, and dedifferentiate. Cells cultured under the above conditions were readily removed from the flasks by decanting, and show the same viability as freshly prepared cells.
The cells were then pelleted, resuspended in the same buffer, but lacking the ester, and incubated a further 15 minutes at 37° C. The cells were subsequently washed twice with PCB containing 0.5 mM CaCl2 and 0.5% BSA and maintained at room temperature (about 20° C.). Immediately before use, the cells were diluted five-fold with prewarmed 0.5mM CaCl2 -PCB to obtain a final BSA concentration of 0.1%. The concentration of cells in the cuvette used for fluorescence recording was 1-2×10^6 /ml.
The fluorescence of indicator-loaded cells was measured at 37° C. in a spectrofluorimeter (Biomedical Instrumentation Group, University of Pennsylvania, Philadelphia, Pa.) equipped with a thermostated cuvette holder and magnetic stirrer using excitation and emission wavelengths of 340 and 510 nm, respectively. […] Leakage of dye is dependent on temperature and most occurs within the first 2 minutes after warming the cells in the cuvette. Dye leakage increases only very slowly thereafter. To correct the calibration for dye leakage, cells were placed in the cuvette and stirred at 37° C. for 2-3 minutes. The cell suspension was then removed, the cells pelleted, and the supernatant returned to a clean cuvette. […] This estimate was subtracted from the apparent Fmin.
Dissociated bovine parathyroid cells were purified on gradients of Percoll and cultured overnight in serum-free medium. […] That is,

[2] = system: human parathyroid calcium receptor (HuPCaR 5.2); test: intracellular calcium in HEK293 cells transfected with HuPCaR 5.2; type: cell-based; conditions: Ca^2+ 10 mM, Mg^2+ 20 mM
Experimental: Cells obtained from the pool of hygromycin selected HEK293 cells transfected with Cep4B containing the HuPCaR 5.2 insert were plated on collagen coated Aklar squares which had been placed into individual wells of 12-well tissue culture plates. Two to six days later, medium was removed and the cells washed with balanced salt solution and 1 ml of buffer containing 1 μM fura2-AM, 1 mM CaCl2 and 0.1% BSA and […]. Measurements of fluorescence in response to calcium receptor agonists were performed at 37° C. in a spectrofluorimeter using excitation and emission wavelengths of 340 and 510 nm, respectively. For signal calibration, Fmax was determined after addition of ionomycin (4.0 μM) and the apparent Fmin was determined by addition of 0.3M EGTA, 2.5M Tris-HCl; pH 10.

[3] = serum ionized Ca^2+ in parathyroidectomized rats; type: in vivo, rat; conditions: 10 mg/kg i.p., 6 hours
From the text: To determine the primary target tissue upon which NPS R-467 acts to cause a hypocalcemic response, the parathyroid glands in rats were surgically removed. Animals receiving a total parathyroidectomy become hypocalcemic and are largely dependent upon dietary calcium to maintain serum Ca^2+ homeostasis.

[4] = system: parathyroid cell calcium receptor; test: Cl^- current in Xenopus oocytes injected with (bovine) parathyroid cell mRNA; type: cell-based; conditions: 30 μM
Experimental: Following incubation, an oocyte was placed into a 100-μl plastic chamber and superfused with MBS at a flow rate of 0.5 ml/min using a peristaltic pump. Test molecules or inorganic polycations were added by rapidly moving the tubing into different buffers. Recording and current passing electrodes were constructed from thin-wall capillary tubing pulled to a resistance of 1-3 Mohms and filled with 3M KCl. […] Currents were recorded directly onto a strip chart recorder.

[5] = serum/blood calcium, PTH, albumin and phosphate in rats, intraperitoneal; type: in vivo, rat; conditions: 10 mg/kg i.p., 1 hour, normal diet
Experimental: Compounds shown to activate the bovine parathyroid cell calcium receptor in vitro were tested for hypocalcemic activity in vivo. […] […] […] Serum total calcium, albumin and phosphate were measured by techniques well known in the art.

[6] = serum/plasma Ca^2+, PTH and calcitonin in rats, oral; type: in vivo; conditions: rat, single oral dose, 3 hours
From the text: Rats (male, Sprague-Dawley, 250-300 g) were fed standard rat chow and fasted overnight prior to the experiment. NPS R-467 was suspended in corn oil and administered as a single oral dose through a gavage needle. Three hours later a sample of blood was taken from the tail vein and assessed for ionized Ca^2+ levels.

[7] = target: T2, human parathyroid cell calcium receptor (Homo sapiens, UniProt P41180); test: Cl^- current in Xenopus oocytes expressing cloned human parathyroid calcium receptor; type: cell-based; conditions: pHuPCaR 5.2 and 4.0
T2 construct: cRNA injected in Xenopus oocytes
T2 sequence (P41180 20-1078 R990G/E1011Q): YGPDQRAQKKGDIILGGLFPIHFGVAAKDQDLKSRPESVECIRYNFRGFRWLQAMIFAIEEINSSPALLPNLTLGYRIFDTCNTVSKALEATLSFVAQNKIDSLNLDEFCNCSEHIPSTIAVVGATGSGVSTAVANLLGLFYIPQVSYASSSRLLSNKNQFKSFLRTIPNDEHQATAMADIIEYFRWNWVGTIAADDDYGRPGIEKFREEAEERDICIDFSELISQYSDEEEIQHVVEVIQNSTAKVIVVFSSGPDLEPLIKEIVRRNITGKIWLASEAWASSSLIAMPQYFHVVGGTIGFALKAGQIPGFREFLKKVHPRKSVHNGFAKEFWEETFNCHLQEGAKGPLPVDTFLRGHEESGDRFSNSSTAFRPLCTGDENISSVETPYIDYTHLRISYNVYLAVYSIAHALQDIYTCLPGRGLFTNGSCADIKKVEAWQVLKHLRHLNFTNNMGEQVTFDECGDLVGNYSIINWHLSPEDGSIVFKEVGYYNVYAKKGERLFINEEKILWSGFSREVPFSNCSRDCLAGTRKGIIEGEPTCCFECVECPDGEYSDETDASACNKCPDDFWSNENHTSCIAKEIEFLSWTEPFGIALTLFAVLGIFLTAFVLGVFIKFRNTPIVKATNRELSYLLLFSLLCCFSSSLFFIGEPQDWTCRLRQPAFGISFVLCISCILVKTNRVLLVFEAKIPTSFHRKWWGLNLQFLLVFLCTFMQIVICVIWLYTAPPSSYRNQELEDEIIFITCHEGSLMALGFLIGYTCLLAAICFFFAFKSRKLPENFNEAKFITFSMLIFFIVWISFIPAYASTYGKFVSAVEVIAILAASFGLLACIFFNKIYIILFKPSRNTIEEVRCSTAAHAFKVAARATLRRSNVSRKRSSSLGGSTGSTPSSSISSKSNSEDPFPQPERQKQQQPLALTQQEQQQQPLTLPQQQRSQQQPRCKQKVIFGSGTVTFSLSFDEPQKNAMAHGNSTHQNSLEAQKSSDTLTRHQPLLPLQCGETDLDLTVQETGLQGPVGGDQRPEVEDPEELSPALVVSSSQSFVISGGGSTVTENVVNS
Experimental: Representative cDNA inserts for both size classes were subcloned into the plasmid vector pBluescript SK. Linearization followed by in vitro transcription using T7 RNA polymerase produced cRNA transcripts. The cRNA transcripts were injected into Xenopus oocytes (150 ng/μl RNA; 50 nl/oocyte) for functional analysis. Following incubation periods of 2-4 days, the oocytes were assayed for the presence of functional calcium receptors. Both clone types gave rise to functional calcium receptors as assessed by the stimulation of calcium-activated chloride currents upon addition of appropriate calcium receptor agonists. […] Thus, both clones encode a functional, human parathyroid cell calcium receptor.
Xenopus oocytes were injected with pHuPCaR 5.2, the 5.2 Kb cDNA encoding a parathyroid cell calcium receptor derived from a human parathyroid cell adenoma. (See Example 27.) After two to three days, Cl^- currents were measured in the oocytes using a two-electrode voltage clamp.

Structure (SMILES): COc1cccc([C@@H](C)NCCCc2ccccc2)c1 [NPS R-467, (R)-(+)-N-(3-phenylpropyl)-α-methyl-3-methoxybenzylamine]
- [Ca^2+]i response in presence of 0.5 mM extracellular Ca^2+ [1]: rapid and transient increase in [Ca^2+ ]i
- [Ca^2+]i response in Ca^2+-free buffer after 10 μM neomycin ([1]; 30 μM NPS R-467): transient increase in [Ca^2+ ]i
- [Ca^2+]i response in Ca^2+-free buffer after 100 μM neomycin ([1]; 30 μM NPS R-467): did not cause an increase in [Ca^2+ ]i
- [Ca^2+]i response in Ca^2+-free buffer ([1]; no extracellular Ca^2+, NPS R-467 30 μM): abolished; also recorded: no increase in [Ca^2+ ]i
- increase in intracellular calcium [2]: Robust increases in intracellular calcium
- change in serum ionized Ca^2+ [3]: did not cause any change
- Cl^- current in oocytes [4]: rapid increase
- decrease in serum ionized Ca^2+ from control level [5]: 22%
- reduction in serum ionized Ca^2+ [6]: dose-dependent reduction in serum levels of ionized Ca^2+
- activation of oocyte-expressed human receptor [7]: activated the oocyte-expressed receptor at about the same concentrations
